The values below are quoted from earlier work in US11865206B2 (priority 2018, dated 2024).

Read-outs that look alike come from different tables or passages of the source.

Test in series [1]: not given
The source holds these as a separate data set.

With `O=NN(CCCl)C(=O)NCCCl` [Carmustine, 1,3-bis(2-chloroethyl)-1-nitrosourea], the “Crossing of the blood brain barrier” value (following IV infusion) was “can cross the blood brain barrier”. Under “oral”, the Oral bioavailability result is “poor oral bioavailability”. The Solubility result in series [1] (in alcohol and lipids) is given as “highly soluble”; in series [1] (in water) it was “poorly soluble”.
